Measured values reported in patent US5210193A, “Piperazine derivatives” (American Cyanamid Company, priority 1990, dated 1993).
Values after ≈ are worked out from the molar mass of the structure shown.

What was measured:
Assay in all cases: in vitro antibacterial MIC, agar plate dilution
Type in all cases: cell-based
[1] = system: Enterobacter aerogenes VGH 84-36; settings: Klebsiella aerogenes, VGH8436, 18 hours, 35° C., read-out: MIC
Experimental: (§1) The in vitro antimicrobial spectrum of the compounds of ths invention were determined by the agar plate dilution method with Mueller-Hinton agar and an inoculum of each test organism of approximately 10^4 colony forming units delivered by the Steers replicating device. The minimal inhibitory concentration (MIC) in mcg/ml is defined as the lowest concentration of test compound that inhibited visible growth after 18 hours incubation at 35° C. Results are given in Table I, with the test compounds identified by the number of their hereinafter described examples.

[2] = system: Enterobacter cloacae K 84-10; settings: Enterobacter cloacae, K8410, 18 h, 35° C., read-out: MIC
Experimental: as §1

[3] = system: Enterobacter cloacae VGH 84-37; settings: Enterobacter cloacae, VGH8437, 18 h, 35° C., read-out: MIC
Experimental: as §1

[4] = system: Escherichia coli ATCC 25922; settings: Escherichia coli, ATCC25922, 18 h, 35° C., read-out: MIC
Experimental: as §1

[5] = system: Escherichia coli CMC 84-11; settings: Escherichia coli, CMC8411, 18 h, 35° C., read-out: MIC
Experimental: as §1

[6] = system: Escherichia coli CMC 84-16; settings: Escherichia coli, CMC8416, 18 h, 35° C., read-out: MIC
Experimental: as §1

Escherichia coli NAR 311 = settings: NAR311, 18 hours, 35° C., read-out: MIC
Experimental: as §1

[7] = system: Escherichia coli PRNT 311; settings: PRNT311, 18 hours, 35° C., read-out: MIC
Experimental: as §1

[8] = system: Klebsiella oxytoca MOR 84-28; settings: MOR8428, 18 hours, 35° C.
Experimental: as §1

Klebsiella pneumoniae AD = settings: Klebsiella pneumoniae, 18 h, 35° C., read-out: MIC
Experimental: as §1

[9] = system: Klebsiella pneumoniae MOR 84-4; settings: Klebsiella pneumoniae, MOR844, 18 h, 35° C., read-out: MIC
Experimental: as §1

[10] = system: Morganella morganii CMC 84-37; settings: Morganella morganii, CMC8437, 18 h, 35° C., read-out: MIC
Experimental: as §1

[11] = system: Morganella morganii VGH 84-11; settings: VGH8411, 18 hours, 35° C., read-out: MIC
Experimental: as §1

[12] = system: Proteus rettgeri CMC 84-41; settings: Providencia rettgeri, CMC8441, 18 h, 35° C., read-out: MIC
Experimental: as §1

[13] = system: Pseudomonas aeruginosa LL-1244; settings: Pseudomonas aeruginosa, LL1244, 18 h, 35° C., read-out: MIC
Experimental: as §1

[14] = system: Pseudomonas aeruginosa VGH 84-4; settings: Pseudomonas aeruginosa, VGH844, 18 h, 35° C., read-out: MIC
Experimental: as §1

[15] = system: Serratia marcescens F 0-35; settings: Serratia marcescens, F035, 18 h, 35° C., read-out: MIC
Experimental: as §1

[16] = system: Serratia marcescens K 84-18; settings: Serratia marcescens, K8418, 18 h, 35° C., read-out: MIC
Experimental: as §1

[17] = system: Staphylococcus Spp saprophiticus VGH 84-50; settings: 18 hours, 35° C., read-out: MIC
Experimental: as §1

[18] = system: Staphylococcus aureus ATTC 29213; settings: Staphylococcus aureus, ATTC29213, 18 h, 35° C., read-out: MIC
Experimental: as §1

[19] = system: Staphylococcus aureus CMC 83-127; settings: Staphylococcus aureus, CMC83127, 18 h, 35° C., read-out: MIC
Experimental: as §1

[20] = system: Staphylococcus aureus CMC 83-128; settings: CMC83128, 18 hours, 35° C., read-out: MIC
Experimental: as §1

[21] = system: Staphylococcus aureus Smith; settings: Staphylococcus aureus, 18 h, 35° C., read-out: MIC
Experimental: as §1

[22] = system: Staphylococcus aureus VGH 84-45; settings: Staphylococcus aureus, VGH8445, 18 h, 35° C., read-out: MIC
Experimental: as §1

[23] = system: Staphylococcus aureus VGH 84-46; settings: Staphylococcus aureus, VGH8446, 18 h, 35° C., read-out: MIC
Experimental: as §1

[24] = system: Staphylococcus epidermidis CMC 83-135; settings: CMC83135, 18 hours, 35° C., read-out: MIC
Experimental: as §1

[25] = system: Staphylococcus epidermidis IO 83-58; settings: IO8358, 18 hours, 35° C., read-out: MIC
Experimental: as §1

[26] = system: Staphylococcus epidermidis VGH 84-40; settings: VGH8440, 18 hours, 35° C., read-out: MIC
Experimental: as §1

[27] = system: Streptococcus faecalis ATTC 29212; settings: Enterococcus faecalis, ATTC29212, 18 hours, 35° C., read-out: MIC
Experimental: as §1

[28] = system: Streptococcus faecalis VGH 84-65; settings: Enterococcus faecalis, VGH8465, 18 h, 35° C., read-out: MIC
Experimental: as §1

MIC [1]	MIC [2]	MIC [3]	MIC [4]	MIC [5]	MIC [6]	MIC (Escherichia coli NAR 311)	MIC [7]	MIC [8]	MIC (Klebsiella pneumoniae AD)	MIC [9]	MIC [10]	MIC [11]	MIC [12]	MIC [13]	MIC [14]	MIC [15]	MIC [16]	MIC [17]	MIC [18]	Structure (SMILES)	other results
0.03 µg/mL (≈ 0.0854 µM)	0.03 µg/mL (≈ 0.0854 µM)	0.03 µg/mL (≈ 0.0854 µM)	< 0.015 µg/mL	0.03 µg/mL (≈ 0.0854 µM)	< 0.015 µg/mL	0.5 µg/mL (≈ 1.42 µM)	0.03 µg/mL (≈ 0.0854 µM)	0.06 µg/mL (≈ 0.171 µM)	0.06 µg/mL (≈ 0.171 µM)	0.06 µg/mL (≈ 0.171 µM)	0.06 µg/mL (≈ 0.171 µM)	0.06 µg/mL (≈ 0.171 µM)	0.12 µg/mL (≈ 0.342 µM)	4 µg/mL (≈ 11.4 µM)	0.5 µg/mL (≈ 1.42 µM)	0.12 µg/mL (≈ 0.342 µM)	0.06 µg/mL (≈ 0.171 µM)	2 µg/mL (≈ 5.69 µM)	0.5 µg/mL (≈ 1.42 µM)	CCn1cc(C(=O)O)c(=O)c2cc(F)c(N3CCN(C)CC3)c(F)c21 [Example 61, 1-Ethyl-6,8-difluoro=1,4-dihydro-7-(4-methyl-1-piperazinyl)-4-oxo-3-quinolinecarboxylic acid]	MIC [19]: 0.12 µg/mL (≈ 0.342 µM); MIC [20]: 0.5 µg/mL (≈ 1.42 µM); MIC [21]: 0.25 µg/mL (≈ 0.712 µM); MIC [22]: 0.12 µg/mL (≈ 0.342 µM); MIC [23]: 0.25 µg/mL (≈ 0.712 µM); MIC [24]: 0.25 µg/mL (≈ 0.712 µM); MIC [25]: 0.25 µg/mL (≈ 0.712 µM); MIC [26]: 0.25 µg/mL (≈ 0.712 µM); MIC [27]: 2 µg/mL (≈ 5.69 µM); MIC [28]: 2 µg/mL (≈ 5.69 µM)
4 µg/mL (≈ 9.23 µM)	4 µg/mL (≈ 9.23 µM)	4 µg/mL (≈ 9.23 µM)	2 µg/mL (≈ 4.61 µM)	2 µg/mL (≈ 4.61 µM)	2 µg/mL (≈ 4.61 µM)	32 µg/mL (≈ 73.8 µM)	2 µg/mL (≈ 4.61 µM)	8 µg/mL (≈ 18.5 µM)	4 µg/mL (≈ 9.23 µM)	4 µg/mL (≈ 9.23 µM)	4 µg/mL (≈ 9.23 µM)	4 µg/mL (≈ 9.23 µM)	8 µg/mL (≈ 18.5 µM)	> 256 µg/mL	128 µg/mL (≈ 295 µM)	8 µg/mL (≈ 18.5 µM)	16 µg/mL (≈ 36.9 µM)	2 µg/mL (≈ 4.61 µM)	1 µg/mL (≈ 2.31 µM)	CCCCCCOCC1CN(c2cc3c(cc2F)c(=O)c(C(=O)O)cn3CC)CCN1 (stereo not drawn) [Example 77, 1-Ethyl-6-fluoro-7-[3-[(hexyloxy)methyl]-1-piperazinyl]-1,4-dihydro-4-oxo-3-quinolinecarboxylic acid]	MIC [19]: 0.25 µg/mL (≈ 0.577 µM); MIC [20]: 0.5 µg/mL (≈ 1.15 µM); MIC [21]: 2 µg/mL (≈ 4.61 µM); MIC [22]: 0.5 µg/mL (≈ 1.15 µM); MIC [23]: 0.5 µg/mL (≈ 1.15 µM); MIC [24]: 1 µg/mL (≈ 2.31 µM); MIC [25]: 1 µg/mL (≈ 2.31 µM); MIC [26]: 0.25 µg/mL (≈ 0.577 µM); MIC [27]: 8 µg/mL (≈ 18.5 µM); MIC [28]: 8 µg/mL (≈ 18.5 µM)
64 µg/mL (≈ 143 µM)	64 µg/mL (≈ 143 µM)	64 µg/mL (≈ 143 µM)	32 µg/mL (≈ 71.5 µM)	32 µg/mL (≈ 71.5 µM)	32 µg/mL (≈ 71.5 µM)	256 µg/mL (≈ 572 µM)	16 µg/mL (≈ 35.8 µM)	64 µg/mL (≈ 143 µM)	64 µg/mL (≈ 143 µM)	64 µg/mL (≈ 143 µM)	32 µg/mL (≈ 71.5 µM)	32 µg/mL (≈ 71.5 µM)	64 µg/mL (≈ 143 µM)	> 256 µg/mL	> 256 µg/mL	> 256 µg/mL	> 256 µg/mL	8 µg/mL (≈ 17.9 µM)	4 µg/mL (≈ 8.94 µM)	CCCCCCOCC1CN(c2cc3c(cc2F)c(=O)c(C(=O)O)cn3CC)CCN1C (stereo not drawn) [Example 78, 1-Ethyl-6-fluoro-7-[3-[(hexyloxy)methyl]-4-methyl-1-piperazinyl]-1,4-dihydro-4-oxo-3-quinolinecarboxylic acid]	MIC [19]: 1 µg/mL (≈ 2.23 µM); MIC [20]: 4 µg/mL (≈ 8.94 µM); MIC [21]: 8 µg/mL (≈ 17.9 µM); MIC [22]: 8 µg/mL (≈ 17.9 µM); MIC [23]: 4 µg/mL (≈ 8.94 µM); MIC [24]: 4 µg/mL (≈ 8.94 µM); MIC [25]: 8 µg/mL (≈ 17.9 µM); MIC [26]: 2 µg/mL (≈ 4.47 µM); MIC [27]: 16 µg/mL (≈ 35.8 µM); MIC [28]: 16 µg/mL (≈ 35.8 µM)
